Values quoted from earlier work as cited in patent US7094735B2, “Herbicide microemulsion-forming-concentrates, microemulsions, and methods” (priority 2001, dated 2006).

Conditions: Table 1, exemplary pKa values of acidic herbicides

Row | Molecule | pKas
1 | O=C(O)CCCOc1ccc(Cl)cc1Cl [2,4-DB] | 4.8
2 | O=C(O)c1cc(Oc2ccc(C(F)(F)F)cc2Cl)ccc1[N+](=O)[O-] [Acifluorfen] | 3.86
3 | N#Cc1cc(Br)c(O)c(Br)c1 [Bromoxynil] | 4.06
4 | COc1c(Cl)ccc(Cl)c1C(=O)O [Dicamba, 3,6-dichloro-O-anisic acid] | 1.87
5 | CC(Oc1ccc(Cl)cc1Cl)C(=O)O (stereo not shown) [Dichlorprop] | 2.86
6 | CC(Oc1ccc(Oc2ccc(Cl)cc2Cl)cc1)C(=O)O (stereo not shown) [Diclofop] | 3.57
7 | C[C@@H](Oc1ccc(Oc2ccc(C(F)(F)F)cn2)cc1)C(=O)O [Fluazifop-p] | 2.98
8 | CC(Oc1ccc(Oc2ncc(C(F)(F)F)cc2Cl)cc1)C(=O)O (stereo not shown) [Haloxyfop] | 4.33
9 | CC(C)C1(C)N=C(c2nc3ccccc3cc2C(=O)O)NC1=O (stereo not shown) [Imazaquin] | 3.8
10 | CCc1cnc(C2=NC(C)(C(C)C)C(=O)N2)c(C(=O)O)c1 (stereo not shown) [Imazethapyr] | 3.9
11 | N#Cc1cc(I)c(O)c(I)c1 [Ioxynil] | 3.96
12 | Nc1c(Cl)c(Cl)nc(C(=O)O)c1Cl [Picloram] | 2.3
13 | O=C(O)c1c(Cl)ccc2cc(Cl)cnc12 [Quinclorac] | 4.34
14 | CCC/C(=N\OCC)C1=C(O)CC(CC(C)SCC)CC1=O (stereo not shown) [Sethoxydim] | 4.16
15 | O=C(O)COc1nc(Cl)c(Cl)cc1Cl [Triclopyr, 3,5,6-trichloro-2-pyridyloxyacetic acid] | 2.68
16 | Imazamethbenz | 2.9
